Data published in patent US12048737B2, “Use of a vaccine targeting a cryptic tert epitope, for treating cancer in a HLA-A*0201-positive patient having a non-immunogenic tumor expressing tert” (KRIPTIC PHARMACEUTICALS LIMITED, priority 2017, dated 2024).
Values joined by “and” are separate entries in the source; they are usually repeats but may differ in a detail not shown here. Identical values can stand only once.

Tests used:
[1] = system: NSCLC tumors expressing TElomerase Reverse Transcriptase (TERT); assay: Vx-001-201 randomized double blind phase IIb study: clinical outcome (OS, TTF, 12 months survival); assay type: in vivo, human; details: without natural immunity; for HR (OS) / HR (TTF): Vx-001 vs placebo
Description: The Vx-001-201 study is a randomized, double blind multicenter study done in 70 centers in France, Germany, Spain, Italy, Greece, Poland, Romania and Czech Republic. Key eligibility criteria were a) non small cell lung cancer (NSCLC), b) stage IV or recurrent stage I-III, c) disease control after platinum based first line chemotherapy according to RECIST 1.1 criteria, d) HLA-A*0201 positivity, e) tumors expressing TElomerase Reverse Transcriptase (TERT), f) ECOG 0 or 1 g) absence of brain metastasis.
• a) Principal endpoint: overall survival (OS) measured from randomization • b) Secondary endpoints: • Time to Treatment Failure (TTF) measured from randomization • OS at 12 months • c) Main exploratory objectives • Evaluation of vaccine induced specific immune response • Correlation between vaccine specific immune response and clinical response Procedures and Vaccination Protocol
Patients who fulfilled all inclusion criteria were randomized within 4 weeks after the end of first line chemotherapy.
The vaccination protocol consisted in six vaccinations at three week interval. The optimized Vx-001/TERT572Y was used in the first two vaccinations and the native Vx-001/TERT572 in the following four vaccinations. Patients who continued controlling their disease after the sixth vaccination received boost vaccination with the Vx-001/TERT572 every three months. Vaccination was stopped at disease progression (FIG. 1).
The primary and secondary endpoints were analysed in the Full Analysis Set (FAS) composed of all patients who fulfilled the five main criteria a) NSCLC, b) stage IV or recurrent stage I-III, c) disease control after first line chemotherapy, d) HLA-A*0201 positivity and e) TERT expressing tumors.
We used the Kaplan-Meier method to estimate OS and TTF in each arm and a Cox proportional hazards regression model to estimate Hazard Ratio (HR) relating OS and TTF to the treatment effect.

TERT572 peptide = assay: IFNg ELISpot immunomonitoring of vaccine induced TERT572 specific immune response in PBMC; assay type: cell-based, human
[2] = Former smoker (≤20 years) (never smoked or smokers less than 20 years)
[3] = Former smoker (≤25 years) (never smoked or smokers less than 25 years)
[4] = Heavy smoker (>25 years, former or current smoker)
[5] = NS or light smoker (≤25 years, former or current smoker)

## Vx-001: vaccine composed of two nine amino acid peptides, TERT572 and TERT572Y, administered separately with the adjuvant Montanide ISA51 VG (chain 1 RLFFYRKSV; chain 2 YLFFYRKSV; Montanide ISA51 VG adjuvant; peptide from a human protein; optimized peptide)
[1]; <65 years (n = 59)
  Median survival (OS): 12.7 months
  HR (OS): 1.00
  HR (TTF): 0.84
[1]; >65 years (n = 63)
  12 months OS: 57.1%
  Median TTF: 4.4 months
  Median survival (OS): 14.1 months
  HR (OS): 0.63
  HR (TTF): 0.65
[1]; Current smoker
  12 months OS: 20%
  Median TTF: 4.4 months
  Median survival (OS): 6.4 months
  HR (OS): 1.3
  HR (TTF): 0.70
[1]; Female (n = 33)
  12 months OS: 52.9%
  Median TTF: 4.6 months
  Median survival (OS): 12.7 months
  HR (OS): 1.24
  HR (TTF): 0.91
[1]; Former smoker (<30 years)
  Median TTF: 4.2 months
  HR (TTF): 0.55
[1]; [2]
  Median TTF: 5.6 months
  HR (TTF): 0.39
[1]; [3]
  Median TTF: 5.6 months
  HR (TTF): 0.43
[1]; [4]
  12 months OS: 42.1%
  Median survival (OS): 9.9 months
  HR (OS): 1.15
[1]; Male (n = 89)
  12 months OS: 56.4%
  Median TTF: 3.7 months
  Median survival (OS): 14.1 months
  HR (OS): 0.70
  HR (TTF): 0.7
[1]; NS + Former smoker (<30 years)
  12 months OS: 78%
  Median survival (OS): 20.2 months
  HR (OS): 0.37
[1]; NS + Former smoker (≤20 years)
  12 months OS: 80%
  Median survival (OS): 20.2 months
  HR (OS): 0.23
[1]; NS + Former smoker (≤25 years)
  12 months OS: 82.3%
  Median survival (OS): 20.7 months
  HR (OS): 0.29
[1]; [5]
  12 months OS: 83.0%
  Median survival (OS): 20.7 months
  HR (OS): 0.27
[1]; NSQ (n = 76)
  12 months OS: 56.7%
  Median survival (OS): 13.4 months
  HR (OS): 0.58
[1]; NSQ (n = 78)
  Median TTF: 4.6 months
  HR (TTF): 0.61
[1]; Never smoker
  Median TTF: 5.6 months
  HR (TTF): 0.51
[1]; Never smoker (NS)
  12 months OS: 85.7%
  Median survival (OS): 16.2 months
  HR (OS): 0.2
[1]; OR to chemotherapy (n = 55)
  12 months OS: 59% and 57.9%
  Median TTF: 5.3 months
  Median survival (OS): 13.2 months
  HR (OS): 0.72
  HR (TTF): 0.56
[1]; SD to chemotherapy (n = 67)
  12 months OS: 54%
  Median TTF: 3.6 months
  Median survival (OS): 13.6 months
  HR (OS): 0.82
  HR (TTF): 0.95
[1]; SQ (n = 46)
  12 months OS: 52.6%
  Median TTF: 3 months
  Median survival (OS): 13.2 months
  HR (OS): 1.41
  HR (TTF): 1.18
TERT572 peptide; 75 Vx-001 treated patients measured at least at W6, W18 or thereafter
  Patients who mounted a TERT572 specific immune response: 29.3%
TERT572 peptide; non-squamous (NSQ) NSCLC
  Patients with TERT572 specific immune response: 36%
TERT572 peptide; patients with natural immunity against TERT572
  Frequency of patients with vaccine-induced immune response: 15%
TERT572 peptide; patients without natural immunity against TERT572
  Frequency of patients with vaccine-induced immune response: 36.2%
TERT572 peptide; squamous (SQ) NSCLC
  Patients with TERT572 specific immune response: 13.3%
